Data set [1] relates to HIV-1 UG270 (clinical isolate; X4). The settings on record: PBMCs; UG270, group M subtype D; p24 Ag ELISA.
Data set [2] in a line: Cytotoxicity assay (MTS/PES). In kind it is cell-based. How it is done: Cytotoxicity in PBMCs (3 days), MT-4 (5 days), HUT-78 (1 day), C8166-(5 days), HEL (3 days) and Daudi cells (3 days) was measured using the MTS/PES method. The duration of the assays is given between brackets.
Data set [3] relates to HIV-1 DJ259 (clinical isolate; R5). To be noted: PBMCs; DJ259, group M subtype C; p24 Ag ELISA.
Another data set addresses R5 HIV-1 gp120 ADA. As to the kind of experiment: Surface plasmon resonance. In kind it is binding. To be noted: SPR, immobilized gp120 ADA, 25°C. The method, then: Recombinant gp120 proteins from X4 HIV-1 IIIB strain (ImmunoDiagnostics Inc., Woburn, MA) and from R5 HIV-1 strains ADA and YU2 (ImmunoDiagnostics Inc.) were covalently immobilized on a CM5 sensor chip in 10 mM sodium acetate, pH 4.0, using standard amine coupling chemistry. The chip densities were 8200 resonance units (RUs), 10760 RUs and 9626 RUs, respectively. A reference flow cell was used as a control for non-specific binding and refractive index changes. All interaction studies were performed at 25°C on a Biacore T200 instrument (GE Healthcare, Uppsala, Sweden). The compounds LabyA1 and nisin were serially diluted in HBS-P (10 mM HEPES, 150 mM NaCl and 0,05% surfactant P20; pH 7.4) supplemented with 5% dimethyl sulfoxide (DMSO, Merck), and 10 mM CaCl2 covering a concentration range between 7.8 and 31.3 µM, by using two-fold dilution steps. Samples (in duplicate) were injected for 2 minutes at a flow rate of 45 µl/min and the dissociation was followed for 4 minutes. Several buffer blanks were used for double referencing. The CM5 sensor chip surface was regenerated with a single injection of 50 mM NaOH. A DMSO concentration series was included to eliminate the contribution of DMSO to the measured response. […] The experimental data were fit using the 1∶1 binding model Biacore T200 Evaluation software 1.0 to determine the binding kinetics.

Another data set concerns HIV-1 BaL (R5). The settings on record: read-out: EC50 (µM ± SEM), PBMCs, p24 Ag ELISA.
The test system of the next data set is HIV-1 NL4.3 (X4). To be noted: read-out: EC50 (µM ± SEM), PBMCs, p24 Ag ELISA.
For data set [4], the system named is HSV-1 TK^- RV-179 (clinical isolate). The settings on record: HEL cells, CPE.
Data set [5] deals with HSV-2 TK^- BA19026589 (clinical isolate). The settings on record: HEL cells, CPE.
Data set [6] is described as follows: Cytotoxicity assay (flow cytometry). In kind it is cell-based. To be noted: 3 days, read-out: 50% cytotoxic concentration (CC50). How it is done:
The vaginal epithelial cell lines HEC-1A and VK2 (500 µl; at a density of 1×10^6 cells/ml) were seeded in a 24-well plate and incubated for 3 days with various concentrations of LabyA1 (500 µl). Cell cytotoxicity was determined microscopically and by flow cytometry (FACSCalibur, BD Biosciences, Erembodegem, Belgium).

A value given as a limit tells only on which side of the number the result lay.

Turning to `C/C=C1\NC(=O)[C@H](Cc2ccccc2)NC(=O)[C@@H]2CCCN2C(=O)[C@H](C(C)C)NC(=O)[C@H](Cc2c[nH]c3ccccc23)NC(=O)[C@]23CSC[C@H](NC1=O)C(=O)N[C@H](C(=O)O)CSSC[C@H](NC(=O)[C@@H]1CSC[C@]4(C[C@H](N)C(=O)N[C@@H](CC(N)=O)C(=O)N[C@@H](C)C(=O)N4)C(=O)N[C@@H](C(C)C)C(=O)N[C@@H](Cc4c[nH]c5ccccc45)C(=O)N[C@@H](CCC(=O)O)C(=O)N1)C(=O)N[C@@H](C2)C(=O)N[C@@H]([C@@H](C)O)C(=O)NCC(=O)N3` [LabyA1, labyrinthopeptin A1], the concentration giving a half-maximal response (EC50) in data set [1] is 1500 ± 100 nM; in [3], 940 ± 430 nM; in the data set with HIV-1 BaL (R5) it was 3.3 ± 0.4 µM; in the data set with HIV-1 NL4.3 (X4) it was 0.79 ± 0.09 µM; in data set [4] it was 1900 ± 300 nM; in [5] it was 290 ± 100 nM. Moreover, the CC50 in [2] (C8166 cells, 5 days) was 23 µM; in data set [2] (Daudi cells, 3 days), over 48 µM; in data set [2] (HUT-78 cells, 1 day), over 31 µM; in data set [2] (MT-4 cells, 5 days), 33 µM; in data set [2] (PBMCs, 3 days), 45 µM; in [6] (HEC-1A (endometrium carcinoma)) it was 34 µM. Also, the CC50 in [6] (VK2 (vaginal epithelial)) is over 48 µM. Binding at R5 HIV-1 gp120 ADA was put at a Kd of 12.3 ± 2.2 µM.

These data come from paper PMC3665789 (PLoS ONE, 2013).
